Columns and labels:
[1] = system: HepG2 cells derived from a human liver carcinoma; assay: Growth inhibition of HepG2 cells, sulforhodamin-B-method, six days; assay type: cell-based; conditions: six days of substance incubation
Experimental: HepG2 cells derived from a human liver carcinoma plated at a density of 20,000 cells/ml in 12-well plastic dishes. Cultivation occurred in Richters IMEM-ZO nutrient medium with 5% foetal calf serum (FCS) in a tissue culture incubator with a gas mixture of 5% CO2 and 95% air at a temperature of 37° C. One day after plating, the culture medium was aspirated from the cells and replaced by fresh medium which contained the respective concentrations of the test substances. For the individual concentrations and the controls without test substances, three-fold batches were done for each. Three days after the beginning of treatment, the medium was again renewed with the test compounds. After six days of substance incubation, the test was ended and the protein amount in the individual wells was determined with the sulforhodamin-B-method (according to P. Skehan et al.: New Colorimetric Cytotoxicity Assay for Anticancer-Drug Screening. J. Natl. Cancer Inst. 82: 1107–1112, 1990). The IC50-values (defined as that concentration in which the cell growth was inhibited by 50%) was taken from the dose-response curves and given as a comparative measurement for the activity of the test compounds.

[2] = system: lymphocytes from the spleen of a Swiss mouse; assay: Immunosuppressing activity on freshly isolated lymphocytes, vital cells by flow-through cytometer after 2 days; assay type: cell-based; conditions: vital cells after 2 days
Source text: Many anti-tumor agents have not only a cytotoxic effect on tumor cells, but also on the blood cell system. This leads to a weakening of the immune defence, which can, in turn, be specifically employed to suppress the rejection reaction after an organ transplantation for example. Also use of the main compounds, optionally in combination with other immunological diseases (for example, psoriasis or autoimmune diseases) seems likely. In order to test the possibility for a therapeutic use in illnesses of this type, the substance activity was tested on freshly isolated lymphocytes as follows:
The spleen of a Swiss mouse served as a lymphocyte source. The lymphocyte population was isolated from the spleen cell suspension over a ficoll gradient and taken up in IMEM-ZO culture medium with 0.1% dextran 70,000 and 2% foetal calf serum. […] Subsequently, 10,000 cells per each sample were measured on a flow-through cytometer and the percentage amount of vital cells in the population was determined. By means of the dose-response curves, IC50-values were calculated which were also employed in the following Tables for the characterization of the individual substances: […]

## N-[6-(2,5-dioxo-3,4-diphenyl-2,5-dihydropyrrol-1-yl)-hexyl])-3-pyridin-3-yl-acrylamide [substance 58]
[1]
  IC50: 0.5 µM
[2]
  IC50: 0.06 µM
